Laboratory results: patent publication US20260285866A1, “MODULATORS OF TRPML, THEIR COMPOSITIONS AND METHODS OF USE” (Caraway Therapeutics, Inc., priority 2024, published 2026)

Experiments:
Human TRPML1 = Human TRPML1 (Homo sapiens, UniProt Q9GZU1, L15A/L16A/L577A/L578A); experiment: Fluorescent TRPML1 assay (Fluo4-AM, HEK-293 Trex cells expressing hTRPML1); type: cell-based; conditions: fluorescent calcium assay, doxycycline-induced hTRPML1
Method: Example 27. Fluorescent TRPML Assays
(§1) HEK-293 Trex cells were stably transfected with a construct consisting of the human coding sequence for TRPML1 cloned into the tet-inducible plasmid pCDNA5 T/O. Mutations were introduced into the TRPML1 sequence to facilitate expression on the cell surface (Silvia Vergarajauregui, Rosa Puertollano Traffic. 2006 March; 7(3): 337-353). Briefly, the cells are cultured in 150 mm round tissue culture dishes containing 20 mL of media. The day before the assay the cells are rinsed with DPBS-Ca-Mg and then treated briefly with Trypsin-EDTA. The Trypsin-EDTA is diluted with growth media, and cells are counted. 38×10^6 cells are re-plated into 150 mm round tissue culture dishes in media containing 0.5 μg/mL doxycycline to induce expression of hTRPML1.
(§2) The day of the experiment cells are lifted from the plates as above and collected by centrifugation. The cells are then suspended in dye loading buffer consisting of Ringer's solution supplemented with 0.1% Pluronic Acid and 1 micromolar Fluo4-AM dye. Cells are loaded for ~60 minutes in the dark with occasional mixing. The cells are collected by centrifugation, the loading media aspirated, and the cells resuspended in 25 mL Ringer's solution and incubated ~60 minutes in the dark. The cells are again collected by centrifugation, rinsed in Ringer's Solution and resuspended to 0.2×10^6 cells/mL in modified Ringer's solution containing 10 mM calcium.
(§3) Compounds are dissolved to a concentration of 10 millimolar with DMSO. Compound plates are created by dispensing compounds into 384 well black wall clear bottom plates (Greiner 781091). Positive and negative controls are included on each plate. Typically, different amounts of each compound are tested ranging from 100 nanoMoles (20 micromolar final concentration) decreasing in half-log steps to 31 picoMoles (6 nanomolar final concentration). Each concentration is typically tested in triplicate.
(§4) 50 microliters of dye-loaded cells are dispensed into each well of the compound assay plate created above. The fluorescence in each well is then determined with an excitation wavelength of 480 nm and an emission wavelength of 540 nm using either a Molecular Devices SpectraMax multimode plate reader or a Hamamatsu FDSS/uCell plate imager.
(§5) The resulting fluorescence for each well is exported as an ascii file and loaded into our LIMS for analysis. The percent activity of each compound at each concentration is determined by comparison to the positive and negative control wells included in each plate.
(§6) EC50 values were calculated using a non-linear regression of Prism. In the table, “A” indicates an EC50 of less than 100 nM, “B” indicates an EC50 range from 100 nM to 500 nM: “C” indicates an EC50 range from 500 nM to 2 μM; and “D” indicates an EC50 greater than 2 μM.

Human TRPML3 = molecular target: T1, Human TRPML3 (Homo sapiens, UniProt Q8TDD5); experiment: Fluorescent TRPML3 assay (as for TRPML1); type: cell-based; conditions: fluorescent calcium assay as for TRPML1, TRPML3 subtype
T1 construct: expressed in transfected cells
T1 sequence (Q8TDD5 1-553): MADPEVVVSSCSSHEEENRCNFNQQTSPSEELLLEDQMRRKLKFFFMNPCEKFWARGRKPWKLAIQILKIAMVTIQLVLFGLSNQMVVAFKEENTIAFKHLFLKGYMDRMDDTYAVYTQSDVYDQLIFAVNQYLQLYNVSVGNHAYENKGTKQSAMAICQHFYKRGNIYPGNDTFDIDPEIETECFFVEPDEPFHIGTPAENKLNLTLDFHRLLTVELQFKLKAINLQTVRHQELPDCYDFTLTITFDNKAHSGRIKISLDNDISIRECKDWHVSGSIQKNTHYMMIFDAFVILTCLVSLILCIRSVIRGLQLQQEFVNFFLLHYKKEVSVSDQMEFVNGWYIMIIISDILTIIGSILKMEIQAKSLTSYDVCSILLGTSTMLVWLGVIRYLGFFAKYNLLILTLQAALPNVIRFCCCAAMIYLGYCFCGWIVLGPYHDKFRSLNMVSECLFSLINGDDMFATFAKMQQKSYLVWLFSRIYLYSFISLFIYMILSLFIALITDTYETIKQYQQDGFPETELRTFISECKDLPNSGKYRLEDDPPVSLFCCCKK
Method: as §1, §2, §3, §4, §5
Assays for TRPML2 and TRPML3 were performed as above for TRPML1, by substituting the appropriate TRPML2 or TRPML3 subtype for the TRPML1.
as §6

Sequence of Human TRPML1 (Q9GZU1 whole entry L15A/L16A/L577A/L578A): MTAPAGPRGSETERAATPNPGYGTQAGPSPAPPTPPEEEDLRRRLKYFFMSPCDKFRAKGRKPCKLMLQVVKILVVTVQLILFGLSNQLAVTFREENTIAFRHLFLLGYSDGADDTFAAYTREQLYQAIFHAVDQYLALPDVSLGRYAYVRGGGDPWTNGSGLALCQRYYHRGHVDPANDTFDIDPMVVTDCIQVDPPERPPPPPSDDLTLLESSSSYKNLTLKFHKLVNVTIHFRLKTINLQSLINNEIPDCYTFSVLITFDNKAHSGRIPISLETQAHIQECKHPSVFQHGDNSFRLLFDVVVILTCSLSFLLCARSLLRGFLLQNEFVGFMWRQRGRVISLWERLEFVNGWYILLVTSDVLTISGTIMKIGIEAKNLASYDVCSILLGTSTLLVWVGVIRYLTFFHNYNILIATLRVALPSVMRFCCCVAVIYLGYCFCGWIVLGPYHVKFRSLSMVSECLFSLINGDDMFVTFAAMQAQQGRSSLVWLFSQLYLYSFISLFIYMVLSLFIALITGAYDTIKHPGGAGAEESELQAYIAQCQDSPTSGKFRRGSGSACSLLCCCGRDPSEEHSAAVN

EC50 (Human TRPML1) [nM]	EC50 (Human TRPML3) [nM]	SMILES
< 100	500 to 2000	C[C@@H]1CN(c2ncnc3c2c(-c2ccccc2)cn3-c2cc(C#N)ccn2)[C@@H](C)CN1C(=O)C(C)(C)O [Compound 101, 2-(4-((2S,5R)-4-(2-hydroxy-2-methylpropanoyl)-2,5-dimethylpiperazin-1-yl)-5-phenyl-7H-pyrrolo[2,3-d]pyrimidin-7-yl)isonicotinonitrile]
100 to 500	500 to 2000	C[C@@H]1CN(c2ncnc3c2c(-c2ccccc2F)cn3-c2cc(OC(F)(F)F)ccn2)[C@@H](C)CN1C(=O)C(C)(C)O [Compound 103, 1-((2R,5S)-4-(5-(2-fluorophenyl)-7-(4-(trifluoromethoxy)pyridin-2-yl)-7H-pyrrolo[2,3-d]pyrimidin-4-yl)-2,5-dimethylpiperazin-1-yl)-2-hydroxy-2-methylpropan-1-one]
500 to 2000	–	C[C@@H]1CN(c2ncnc3c2c(C2CC2)cn3-c2cc(C#N)ccn2)[C@@H](C)CN1C(=O)C(C)(C)O [Compound 105, 2-(5-cyclopropyl-4-((2S,5R)-4-(2-hydroxy-2-methylpropanoyl)-2,5-dimethylpiperazin-1-yl)-7H-pyrrolo[2,3-d]pyrimidin-7-yl)isonicotinonitrile]
100 to 500	> 2000	C[C@@H]1CN(c2ncnc3c2c(-c2ccccc2)cn3-c2cc(F)ccn2)[C@@H](C)CN1C(=O)C(C)(C)O [Compound 106, 1-((2R,5S)-4-(7-(4-fluoropyridin-2-yl)-5-phenyl-7H-pyrrolo[2,3-d]pyrimidin-4-yl)-2,5-dimethylpiperazin-1-yl)-2-hydroxy-2-methylpropan-1-one]
100 to 500	> 2000	C[C@@H]1CN(c2ncnc3c2c(N2CCC2)cn3-c2cc(C#N)ccn2)[C@@H](C)CN1C(=O)C(C)(C)O [Compound 107, 2-(5-(azetidin-1-yl)-4-((2S,5R)-4-(2-hydroxy-2-methylpropanoyl)-2,5-dimethylpiperazin-1-yl)-7H-pyrrolo[2,3-d]pyrimidin-7-yl)isonicotinonitrile]
< 100	500 to 2000	C[C@@H]1CN(c2ncnc3c2c(-c2ccccc2)cn3-c2cc(C#N)ccn2)[C@@H](C)CN1C(=O)C1(O)CCC1 [Compound 109, 2-(4-((2S,5R)-4-(1-hydroxycyclobutane-1-carbonyl)-2,5-dimethylpiperazin-1-yl)-5-phenyl-7H-pyrrolo[2,3-d]pyrimidin-7-yl)isonicotinonitrile]
100 to 500	500 to 2000	CC[C@H]1CN(C(=O)C(C)(C)O)CCN1c1ncnc2c1c(-c1ccccc1)cn2-c1cc(C#N)ccn1 [Compound 111, (S)-2-(4-(2-ethyl-4-(2-hydroxy-2-methylpropanoyl)piperazin-1-yl)-5-phenyl-7H-pyrrolo[2,3-d]pyrimidin-7-yl)isonicotinonitrile]
500 to 2000	500 to 2000	CC(C)[C@H]1CN(C(=O)C(C)(C)O)CCN1c1ncnc2c1c(-c1ccccc1)cn2-c1cc(C#N)ccn1 [Compound 112, (S)-2-(4-(4-(2-hydroxy-2-methylpropanoyl)-2-isopropylpiperazin-1-yl)-5-phenyl-7H-pyrrolo[2,3-d]pyrimidin-7-yl)isonicotinonitrile]
500 to 2000	500 to 2000	CC(C)(O)C(=O)N1CCN(c2ncnc3c2c(-c2ccccc2)cn3-c2cc(C#N)ccn2)[C@@H](C2CC2)C1 [Compound 113]
< 100	100 to 500	C[C@@H]1CN(c2ncnc3c2c(-c2ccccc2F)cn3-c2cc(C#N)ccn2)[C@@H](C)CN1C(=O)C1(O)CCC1 [Compound 114, 2-(5-(2-fluorophenyl)-4-((2S,5R)-4-(1-hydroxycyclobutane-1-carbonyl)-2,5-dimethylpiperazin-1-yl)-7H-pyrrolo[2,3-d]pyrimidin-7-yl)isonicotinonitrile]
500 to 2000	> 2000	C[C@@H]1CN(c2ncnc3c2c(-c2cccnc2)cn3-c2cc(C#N)ccn2)[C@@H](C)CN1C(=O)C(C)(C)O [Compound 115, 2-(4-((2S,5R)-4-(2-hydroxy-2-methylpropanoyl)-2,5-dimethylpiperazin-1-yl)-5-(pyridin-3-yl)-7H-pyrrolo[2,3-d]pyrimidin-7-yl)isonicotinonitrile]
> 2000	> 2000	C[C@@H]1CN(c2ncnc3c2c(-c2cncnc2)cn3-c2cc(C#N)ccn2)[C@@H](C)CN1C(=O)C(C)(C)O [Compound 116, 2-(4-((2S,5R)-4-(2-hydroxy-2-methylpropanoyl)-2,5-dimethylpiperazin-1-yl)-5-(pyrimidin-5-yl)-7H-pyrrolo[2,3-d]pyrimidin-7-yl)isonicotinonitrile]
500 to 2000	500 to 2000	C[C@H]1CN(C(=O)C2(O)CCC2)CCN1c1ncnc2c1c(-c1ccccc1F)cn2-c1cc(C#N)ccn1 [Compound 117, (S)-2-(5-(2-fluorophenyl)-4-(4-(1-hydroxycyclobutane-1-carbonyl)-2-methylpiperazin-1-yl)-7H-pyrrolo[2,3-d]pyrimidin-7-yl)isonicotinonitrile]
100 to 500	100 to 500	C[C@H]1CN(C(=O)C2(O)CCC2)CCN1c1ncnc2c1c(-c1ccccc1)cn2-c1cc(C#N)ccn1 [Compound 118, (S)-2-(4-(4-(1-hydroxycyclobutane-1-carbonyl)-2-methylpiperazin-1-yl)-5-phenyl-7H-pyrrolo[2,3-d]pyrimidin-7-yl)isonicotinonitrile]
500 to 2000	–	CC(C)(O)C(=O)N1CCN(c2ncnc3c2c(-c2ccccc2F)cn3-c2cc(C#N)ccn2)CC1 [Compound 124, 2-(5-(2-fluorophenyl)-4-(4-(2-hydroxy-2-methylpropanoyl)piperazin-1-yl)-7H-pyrrolo[2,3-d]pyrimidin-7-yl)isonicotinonitrile]
> 2000	–	C[C@@H]1CN(c2ncnc3c2c(-c2ccncc2)cn3-c2cc(F)cc(F)c2)[C@@H](C)CN1C(=O)C(C)(C)O [Compound 138, 1-((2R,5S)-4-(7-(3,5-difluorophenyl)-5-(pyridin-4-yl)-7H-pyrrolo[2,3-d]pyrimidin-4-yl)-2,5-dimethylpiperazin-1-yl)-2-hydroxy-2-methylpropan-1-one]
> 2000	–	C[C@@H]1CN(c2nccc3c2c(-c2ccncc2)cn3-c2cc(F)cc(F)c2)[C@@H](C)CN1C(=O)C(C)(C)O [Compound 143, 1-((2R,5S)-4-(1-(3,5-difluorophenyl)-3-(pyridin-4-yl)-1H-pyrrolo[3,2-c]pyridin-4-yl)-2,5-dimethylpiperazin-1-yl)-2-hydroxy-2-methylpropan-1-one]
> 2000	–	C[C@@H]1CN(c2ncnc3c2c(-c2nncs2)cn3-c2cc(C#N)ccn2)[C@@H](C)CN1C(=O)C(C)(C)O [Compound 155, 2-(4-((2S,5R)-4-(2-hydroxy-2-methylpropanoyl)-2,5-dimethylpiperazin-1-yl)-5-(1,3,4-thiadiazol-2-yl)-7H-pyrrolo[2,3-d]pyrimidin-7-yl)isonicotinonitrile]
–	100 to 500	C[C@@H]1CN(c2ncnc3c2c(C2CC2)cn3-c2cc(C#N)ccn2)[C@@H](C)CN1C(=O)CC(O)(C(F)(F)F)C(F)(F)F [Compound 162, 2-(5-cyclopropyl-4-((2S,5R)-2,5-dimethyl-4-(4,4,4-trifluoro-3-hydroxy-3-(trifluoromethyl)butanoyl)piperazin-1-yl)-7H-pyrrolo[2,3-d]pyrimidin-7-yl)isonicotinonitrile]
